We go through four molecules from article PMC9822769, “The Strange Case: The Unsymmetric Cisplatin-Based Pt(IV) Prodrug [Pt(CH3COO)Cl2(NH3)2(OH)] Exhibits Higher Cytotoxic Activity with respect to Its Symmetric Congeners due to Carrier-Mediated Cellular Uptake” (Bioinorganic Chemistry and Applications, 2022).

In one data set the test system is A2780 cells. In words: Cellular Pt accumulation (accumulation ratio, ICP-MS) in A2780 cells. It counts as cell-based, human. To be noted: A2780, 4 h CT, 10 μM. As for the experimental part:
A2780 and A2780cisR cells were seeded in 10 mm Petri dishes and challenged with complexes under investigation (10 μM) in a complete medium for 4 h. At the end of the exposure, cells were washed three times with PBS, detached from Petri dishes using 0.05% trypsin 1x + 2% EDTA (HyClone, Thermo Fisher), and harvested in a completely fresh medium. An automatic cell counting device (Countess®, Life Technologies) was used to measure the number and mean diameter of each cell necessary to calculate the mean cellular (spherical) volume.
For the analysis of Pt accumulation, cells were transferred to a borosilicate glass tube and centrifuged at 1100 rpm for 5 min at room temperature. The supernatant was carefully removed by aspiration, while approximately, 200 μL of the supernatant was left to limit cell loss. Cellular pellets were stored at −80°C until mineralization.
The determination of the platinum content was performed by ICP-MS (Thermo Optek X Series 2). Mineralization was carried out by adding 70% w/w HNO3 to each sample (after defrosting), followed by incubation for 1 h at 60°C in an ultrasonic bath. Before the ICP-MS measurement, HNO3 was diluted to a final concentration of 1%. The instrument settings were optimized to produce the highest platinum sensitivity, and the most abundant isotopes of Pt and In (used as an internal standard) were quantified at m/z 195 and 115, respectively.
The quantity of Pt found in cells and normalized on cell number (cellular Pt accumulation) was expressed as ng of Pt per 10^6 cells. The mean cellular volume, calculated from the actual mean cell diameter measured for each sample (about 12 μm), was used to obtain the volume of 10^6 cells and, finally, the intracellular Pt concentration. At treatment time zero, 100 μL of the medium was taken from each sample to verify the extracellular Pt concentration. The ratio between intracellular and the actual extracellular concentrations is defined as the accumulation ratio, AR [70]. The Pt content in the control experiment, which characterizes any possible Pt contamination during the overall process, was statistically insignificant with respect to the cellular Pt accumulated during treatment, even in the case of A2780cisR.
Experiments with the inhibitors were carried out at 37°C as follows: (i) NaN3 + 2-deoxy-D-glucose (2DG): preincubation for 30 min in PBS with 25 mM NaN3 and 25 mM 2DG, followed by a 10 μM CT with the Pt compounds in Earle's Balanced Salt Solution (EBSS) for 1 h; (ii) cimetidine (CMT): coincubation with 1.5 mM CMT and 10 μM Pt compounds in EBSS for 1 h; (iii) 1-methyl-4-phenylpyridin-1-ium (MPP^+): coincubation with 2.0 mM MPP^+ and 10 μM Pt compounds in EBSS for 1 h; (iv) cytochalasin D (CTD): preincubation for 30 min in EBSS with 10 μM CTD, followed by a 10 μM CT with the Pt compounds in EBSS for 1 h; (v) O-benzylserine (BS): coincubation with 1.0 mM BS and 10 μM Pt compounds in EBSS for 4 h; (vi) ouabain (OUA): preincubation for 1 h in EBSS with 1 mM OUA, followed by a 10 μM CT with the Pt compounds in EBSS for 4 h; (vii) tetraethylammonium chloride (TEA): preincubation for 1 h with 2.0 mM TEA followed by 10 μM Pt compounds in EBSS for 4 h. In the experiments at low temperature, A2780 cells were preincubated for 2 h at 4°C, followed by CT with each Pt compound (10 μM) for 4 h. In all cases, at the end of the CT, the cells were manipulated as described in the previous paragraphs.

Data set [1] is described as follows: RP-HPLC lipophilicity (log k′) on C18 column. In kind it is physicochemical. To be noted: 30% methanol/70% aqueous 15 mM formic acid. The method, then:
Retention times, tR, were measured on two columns: (i) a standard C18 column (Phenomenex Phenosphere-NEXT, 250 × 4.6 mm, 5 μm) and (ii) an IAM.PC.DD.2 column (Regis, 10 cm × […], 10 μm packing 300 Å pore size), prepared by covalently bonding cell-membrane-forming phospholipids to silica. On (i), a chromatogram was performed for each complex (0.25 mM) in a fixed eluent composition (30% methanol/70% aqueous 15 mM formic acid; flow rate 0.5 mL·min^−1) using a Waters HPLC-MS instrument (equipped with an Alliance 2695 separation module, a 2487 dual lambda absorbance detector, and a 3100 mass detector). The UV-vis detector was set at 210 nm. In (ii), the mobile phase consisted of 20 mM ammonium acetate buffer at pH 6.9 and acetonitrile flowing at 1 mL·min^−1. The samples were dissolved in the mobile phase in a concentration range of 50–100 μg·mL^−1. An HPLC Varian ProStar instrument equipped with a 410 autosampler, a PDA 335 LC detector, and Galaxie Chromatography Data System Version 1.9.302.952 was used.
The different tRs were used to calculate log k′, which is the logarithm of the retention factor k′ = (tR − t0)/t0, where t0 is the column dead time (i.e., the tR of KCl or citric acid used as the internal reference for (i) and (ii), respectively).
The lipophilicity of a compound is commonly described by the octanol-water partition coefficient, log Po/w, which can be defined as the ratio of the concentration of the compound between the organic (n-octanol) and the aqueous phase. However, other faster methods, such as RP-HPLC, have often been used to evaluate lipophilicity instead of the shake-flask method. […] Therefore, the retention times (tR) of the complexes were determined on a C18 column using a 70/30 (% v/v) water/MeOH mixture as an eluent, and the data were expressed as log k′ (k′ = (tR − t0)/t0, where t0 is the column dead time of the column). The trend of the measured log k' was 3 > 2 > cisplatin > 1, as expected based on the structure of the complexes, the acetato ligand being more lipophilic than the hydroxido one (Table 1).

On the set-up of data set [2]: method as in PMID 32296997. To be noted: 37°C, ten-fold excess of ascorbic acid; cited from earlier work.

As for `N.N.[Cl][Pt][Cl]` [Cisplatin, (SP-4-2)-diamminedichloridoplatinum(II)], the “ratio between AR 37°C and AR 4°C” value with A2780 cells is on record as “increases hugely”.
Take `N.N.[OH][Pt]([OH])([Cl])[Cl]` [Complex 1, (OC-6-33)-diamminedichloridodihydroxidoplatinum(IV)]: in data set [1], the “Log k′” value is recorded as −1.50. Further, in the data set with A2780 cells, the “ratio between AR 37°C and AR 4°C” value stood at 3.2. The “t ½” value in data set [2] was 8.6 min.
As for `CC(=O)[O][Pt]([OH])([Cl])[Cl].N.N` [Complex 2, (OC-6-44)-acetatodiamminedichloridohydroxidoplatinum(IV)], the “Log k′” value in data set [1] is −1.10. In addition, the “ratio between AR 37°C and AR 4°C” value in the data set on A2780 cells is “increases hugely”. Also, in the data set on A2780 cells (37°C), the “accumulation ratio (AR)” value is “higher AR at 4 h than 1 and 3, even higher than that of cisplatin”. The “t ½” value in data set [2] was 20.5 min.
As to `CC(=O)[O][Pt]([NH2])([NH2])([Cl])([Cl])[O]C(C)=O` [Complex 3, (OC-6-33)-diamminedichloridodiacetatoplatinum(IV)], in data set [1], the “Log k′” value is −0.84. In addition, the “ratio between AR 37°C and AR 4°C” value with A2780 cells was determined as 3.6. Further, the “t ½” value in data set [2] was 528 min.
